Data as given in patent publication US20080194701A1, “Bifunctional Enzyme with Y-Glutamylcysteine Synthetase and Glutathione Synthetase Activity and Uses Thereof” (priority 2004, published 2008).

Tests used:
[1] = test system: vaginal colonization with S. agalactiae (Group B Streptococcus); conditions: one 500 mg capsule by mouth every 6 hours from 2 days before due date
Source text: A person who is allergic to penicillin is seen for prenatal screening prior to delivery of their first child.

E. coli γ-GCS = E. coli γ-GCS (Escherichia coli, UniProt P0A6W9); conditions: cited from earlier work
S. agalactiae γ-GCS-GS = biological target: T1, S. agalactiae γ-GCS-GS (Streptococcus agalactiae serotype V, UniProt Q8DXM9); test: γ-GCS activity assay based on ADP formation, S. agalactiae γ-GCS-GS; assay type: biochemical; design: corresponded to full-length S. agalactiae γ-GCS-GS with an N-terminal His8-tag; made in house; host or cells: E. coli SG13009 with pQE30-gshAB plus pREP4 or pRARE
T1 sequence (Q8DXM9 1-750): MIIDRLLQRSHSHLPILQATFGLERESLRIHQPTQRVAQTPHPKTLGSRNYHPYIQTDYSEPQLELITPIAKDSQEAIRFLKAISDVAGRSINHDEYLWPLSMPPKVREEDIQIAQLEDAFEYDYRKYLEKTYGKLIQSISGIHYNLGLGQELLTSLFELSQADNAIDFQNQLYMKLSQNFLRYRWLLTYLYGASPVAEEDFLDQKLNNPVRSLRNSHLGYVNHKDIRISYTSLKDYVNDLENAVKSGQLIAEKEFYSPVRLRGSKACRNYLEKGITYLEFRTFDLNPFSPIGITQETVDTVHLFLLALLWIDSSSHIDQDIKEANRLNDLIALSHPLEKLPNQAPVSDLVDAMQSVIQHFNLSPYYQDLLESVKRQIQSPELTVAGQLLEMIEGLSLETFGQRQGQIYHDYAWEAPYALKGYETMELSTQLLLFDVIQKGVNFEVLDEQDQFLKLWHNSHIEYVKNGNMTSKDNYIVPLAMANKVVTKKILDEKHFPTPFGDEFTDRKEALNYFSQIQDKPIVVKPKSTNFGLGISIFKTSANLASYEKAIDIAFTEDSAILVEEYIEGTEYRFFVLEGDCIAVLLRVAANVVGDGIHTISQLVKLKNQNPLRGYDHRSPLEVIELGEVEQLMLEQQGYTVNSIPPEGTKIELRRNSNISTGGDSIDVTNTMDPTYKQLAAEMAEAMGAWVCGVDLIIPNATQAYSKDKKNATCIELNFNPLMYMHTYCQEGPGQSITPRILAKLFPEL
Procedure: In Table 1, a unit was defined as the amount of enzyme activity required to catalyze the formation of 1 μmol of product per hour. Specific activity was shown as units per mg protein. Activity was determined at 37° C. based on ADP formation in reaction mixtures containing L-glutamate and L-cysteine and using pyruvate kinase and lactate dehydrogenase to couple ADP formation to NADH oxidation, which was monitored at 340 nm.
Exp. Purif. 13, 268-276 (1998).
At set time points ranging from one to 30 minutes, 5 μl aliquots were removed and assayed for residual enzyme activity using the standard γ-GCS assay based on ADP formation.

Human γ-GCS = biological target: T2, Human γ-GCS (Homo sapiens, UniProt P48506); conditions: cited from earlier work
T2 sequence (P48506 1-637): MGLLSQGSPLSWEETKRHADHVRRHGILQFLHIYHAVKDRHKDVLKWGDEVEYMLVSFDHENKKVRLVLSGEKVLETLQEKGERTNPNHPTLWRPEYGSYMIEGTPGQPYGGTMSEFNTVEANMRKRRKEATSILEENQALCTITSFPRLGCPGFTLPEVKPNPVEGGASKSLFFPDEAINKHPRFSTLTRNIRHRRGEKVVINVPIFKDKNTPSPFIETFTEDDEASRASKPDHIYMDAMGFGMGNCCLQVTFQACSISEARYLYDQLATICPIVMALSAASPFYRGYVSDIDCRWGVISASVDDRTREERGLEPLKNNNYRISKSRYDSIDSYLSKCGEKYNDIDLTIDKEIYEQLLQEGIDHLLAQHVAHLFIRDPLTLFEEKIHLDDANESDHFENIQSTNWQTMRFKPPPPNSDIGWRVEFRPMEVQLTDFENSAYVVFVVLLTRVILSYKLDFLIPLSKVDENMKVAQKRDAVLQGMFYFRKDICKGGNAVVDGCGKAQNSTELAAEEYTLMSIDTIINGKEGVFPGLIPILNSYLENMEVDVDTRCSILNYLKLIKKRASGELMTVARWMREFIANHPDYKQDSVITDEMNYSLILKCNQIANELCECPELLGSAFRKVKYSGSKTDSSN
T2 sequence (P48507 1-274 partner): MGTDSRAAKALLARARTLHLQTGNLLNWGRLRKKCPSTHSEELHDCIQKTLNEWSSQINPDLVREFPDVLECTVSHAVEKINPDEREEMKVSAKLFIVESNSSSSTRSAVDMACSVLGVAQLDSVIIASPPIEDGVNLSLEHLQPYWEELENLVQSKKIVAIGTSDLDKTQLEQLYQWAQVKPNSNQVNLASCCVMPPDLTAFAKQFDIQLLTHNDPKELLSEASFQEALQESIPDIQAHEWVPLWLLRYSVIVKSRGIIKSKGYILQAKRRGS

[2] = test system: urinary tract infection caused by E. faecalis; test: Treatment of urinary tract infection in a patient; assay type: in vivo, human
Source text: A person weighing 50 kg presents to their physician with a urinary tract infection caused by E. faecalis. […] Two months later they return with a recurrence of the urinary tract infection due to E. faecalis.

N[C@@H](CS)C(=O)O = test: purified protein, by the assay type; conditions: other: substrate Km, γ-GCS activity
[3] = test system: N[C@@H](CCC(=O)N[C@@H](CS)C(=O)O)C(=O)O; test: purified protein, by the assay type; conditions: other: substrate Km, GS activity
[4] = biological target: S. agalactiae γ-glutamylcysteine synthetase-glutathione synthetase (γ-GCS-GS) with an N-terminal His8-tag (Streptococcus agalactiae) (UniProt Q8DXM9); test: cell-based or functional assay
E. faecalis γ-GCS-GS [5] = biological target: T3, E. faecalis γ-GCS-GS (Enterococcus faecalis, UniProt Q82ZG8); test: GS activity of E. faecalis γ-GCS-GS; conditions: purified enzyme
E. faecalis γ-GCS-GS [6] = biological target: T3, E. faecalis γ-GCS-GS; test: γ-GCS activity of E. faecalis γ-GCS-GS
[7] = substrate: N[C@@H](CCC(=O)N[C@@H](CS)C(=O)O)C(=O)O; test: cells, lysate or membranes named; conditions: other: substrate Km, GS activity; pH 7.4
[8] = substrate: NCC(=O)O; test: cells, lysate or membranes named; conditions: other: substrate Km, GS activity; pH 7.4
[9] = substrate: CC[C@H](N)C(=O)OC(=O)CC[C@H](N)C(=O)O; test: cells, lysate or membranes named; conditions: other: substrate Km, GS activity; pH 7.4
[10] = substrate: N[C@@H](CS)C(=O)O; test: γ-GCS activity assay based on ADP formation, S. agalactiae γ-GCS-GS; assay type: biochemical, Streptococcus agalactiae; conditions: other: substrate Km, pH 8.2, 37.0 °C

Chain of E. coli γ-GCS (P0A6W9 whole entry): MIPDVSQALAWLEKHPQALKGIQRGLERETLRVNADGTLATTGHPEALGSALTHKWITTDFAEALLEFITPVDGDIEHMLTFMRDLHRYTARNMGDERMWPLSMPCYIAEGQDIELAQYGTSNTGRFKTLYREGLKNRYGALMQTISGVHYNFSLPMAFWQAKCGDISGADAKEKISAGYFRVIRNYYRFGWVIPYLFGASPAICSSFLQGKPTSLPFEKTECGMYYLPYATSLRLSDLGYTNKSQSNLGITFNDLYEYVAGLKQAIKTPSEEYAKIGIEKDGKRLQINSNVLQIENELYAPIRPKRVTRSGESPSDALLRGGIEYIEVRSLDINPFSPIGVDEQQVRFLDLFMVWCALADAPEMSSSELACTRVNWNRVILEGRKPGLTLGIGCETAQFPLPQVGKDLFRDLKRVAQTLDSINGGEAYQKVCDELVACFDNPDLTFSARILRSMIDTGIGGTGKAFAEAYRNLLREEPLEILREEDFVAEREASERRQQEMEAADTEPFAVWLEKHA

## CCCC[S@](=N)(=O)CC[C@H](N)C(=O)O [L-S—BSO, L-buthionine-S-sulfoximine, reference compound]
[1]
  outcome of colonization: no S. agalactiae bacteria are detected
E. coli γ-GCS
  Kd: 66 µM
  Ki: 66 µM
  kinact: ~0.30 min⁻¹
E. coli γ-GCS; half-life for inactivation
  t1/2: 2.3 min
S. agalactiae γ-GCS-GS
  Kd: 2.8 ± 0.3 mM
  Ki: 4.9 ± 0.2 mM
  kinact: 0.00217 s⁻¹
Human γ-GCS
  Kd: 25 µM
  Ki: 25 µM
  kinact: 3.9 min⁻¹
Human γ-GCS; half-life for inactivation
  t1/2: 11 s
[2]; one 500 mg capsule by mouth every 6 hours for two days
  outcome of infection: without resolution of the infection
[2]; two 500 mg capsules every 6 hours, fourth day
  outcome of infection: urine is free of detectable bacteria

## E. faecalis γ-GCS-GS (Enterococcus faecalis V583)
N[C@@H](CS)C(=O)O
  Km: 192 ± 14 µM
[3]
  Km: 4.30 ± 0.05 mM

## Glutathione (L-γ-glutamyl-L-cysteinylglycine) (peptide)
[4]
  inhibition of γ-GCS activity: < 5%

B1: E. faecalis γ-GCS-GS: bifunctional γ-GCS-GS enzyme of E. faecalis (gshAB, EF3089; SEQ ID NO:12) expressed in E. coli (protein, listed as Enterococcus faecalis)
chain: MNYRELMQKKNVRPYVLMARFGLEKENQRSTREGLLATTEHPTVFGNRSYHPYIQTDFSETQLELITPVANSGTEMLRFLDAIHDVARRSIPEDEMLWPLSMPPQLPTKDEEIKIAKLDQYDAVLYRRYLAKEYGKRKQMVSGIHFNFEYDQALIQQLYDEQSEVTDCKQFKTKVYMKVARNFLRYRWLITYLFGASPVSEDRYFRVYDDQPQEPVRSIRNSTYGYRNHDNVKVSYASLERYLEDIHRMVENGLLSEEKEFYAPVRLRGGKQMSDLPKTGIRYIELRNLDLNPFSRLGIVEDTVDFLHYFMLYLLWTDEKEEADEWVKTGDIFNEQVALGHPHETIKLIAEGDRIFSEMIDMLDALGIRKGKEVVGKYYQQLRNPQDTVSGKMWTIIQENSNSELGNIFGNQYQSMAFERPYQLAGFREMELSTQIFLFDAIQKGLEIEILDEQEQFLKLQHGEHIEYVKNANMTSKDNYVVPLIMENKTVTKKILSAAGFHVPGGEEFSSFIEAQEAHLRYANKAFVVKPKSTNYGLGITIFKEGASLEDFTEALRIAFKEDTAVLIEEFLPGTEYRFFVLDNDVKAIMLRVPANVTGDGKHTVEELVAAKNSDPLRGTNHRAPLELIQLNDLEKLMLKEQGLTIYSVPEKEQIVYLRENSNVSTGGDSIDMTDVIDDSYKQIAIEAVAALGAKICGIDLIIPDKDVKGTRDSLTYGIIEANFNPAMHMHVYPYAGQGRRLTMDVLKLLYPEVVQ
E. faecalis γ-GCS-GS [5]
  GS specific activity: 2297 units/mg
E. faecalis γ-GCS-GS [6]
  ratio of activities (γ-GCS to GS): about 0.23
E. faecalis γ-GCS-GS [6]; purified enzyme
  γ-GCS specific activity: 240 units/mg

B2: S. agalactiae γ-GCS-GS (Streptococcus agalactiae 2603V/R) (protein)
chain: T1 sequence (Q8DXM9 1-750)
notes: corresponded to full-length S. agalactiae γ-GCS-GS with an N-terminal His8-tag; made in house; host or cells: E. coli SG13009 with pQE30-gshAB plus pREP4 or pRARE
[7]
  Km: 3.9 ± 0.5 mM mM
  Vmax: 2264 ± 896 units/mg units/mg
[8]
  Km: 6 ± 0.5 mM mM
  Vmax: 2326 ± 584 units/mg
[9]
  Km: 11.5 ± 1.5 mM mM
  Vmax: 2648 ± 597 units/mg units/mg
[10]
  Km: 160 ± 9 μM μM
  Vmax: 1126 ± 21 units/mg
